The SangsterLogP compilation

Assay: method code SF-AS, from DOI: 10.2307/3575799, PMID: 7199747
Conditions: pH 7.4
Molecule `CC(=O)OCCN(CCOC(C)=O)C(=O)Cn1ccnc1[N+](=O)[O-]` has a logD of -0.64. In the case of `CC(O)CN(CC(C)O)C(=O)Cn1ccnc1[N+](=O)[O-]` (stereo not given), the logD was -0.96. `CC(=O)OCC(CNC(=O)Cn1ccnc1[N+](=O)[O-])OC(C)=O` (stereo not given) showed a logD of -0.77.

Assay: method code SF, from DOI: 10.2307/3575799, PMID: 7199747
Conditions: pH 7.4
`O=COCCN(CCOC=O)C(=O)Cn1ccnc1[N+](=O)[O-]` gave a logD of -1.66. Molecule `O=C(Cn1ccnc1[N+](=O)[O-])NC(CO)(CO)CO` has a logD of -1.77. `NC(=O)Cn1ccnc1[N+](=O)[O-]` gave a logD of -1.22. For `CC(C(=O)NCCO)n1ccnc1[N+](=O)[O-]` (stereo not given), the logD was -1.16. In the case of `CC(C(=O)NCC(O)CO)n1ccnc1[N+](=O)[O-]` (stereo not given), the logD was -1.64. Molecule `O=C(Cn1ccnc1[N+](=O)[O-])N(CCO)CCO` has a logD of -1.59. `CCC(=O)OCCN(CCOC(=O)CC)C(=O)Cn1ccnc1[N+](=O)[O-]` gave a logD of 0.44.
